# Values joined by “and” are separate entries in the source; they are usually repeats but may differ in a detail not shown here. Equal entries are not always repeated. Where two headings read alike, the source gives them in different places.
# Legend:
# Type in all cases: in vivo
# [1] = Whole blood concentrations after IP administration to mice (LC-MS/MS); settings: for concentration at 1 h: Day 3, 1.00 hrs; for concentration at 24 h: Day 3, 24.0 hrs
# Description: These determinations were made using protein precipitation, liquid chromatography (LC), and mass spectrometry (MS/MS). Ten μl aliquots of whole blood and matrix calibration standards were distributed in a 96-well plate; 10 μl aliquots of blank matrix for matrix blanks and control blanks were included as controls. Ten μl of water was added to each sample followed by vortexing. […] This was followed by a five-minute vortex at >3500 rpm. One hundred fifty μl of the resultant supernatant was then transferred to a new 96-well plate and the samples blown to dryness at 35° C. […]
# [2] = system: 6-OHDA injected mice; assay: Anti-TH immunohistochemistry, 6-OHDA-induced striatal denervation; settings: 10 mg/kg
# Description: Immunohistochemistry analysis using anti-tyrosine hydroxylase (TH) antibody was performed in mouse midbrain sections to quantify 6-OHDA-induced striatal denervation in mice injected with 6-OHDA and non-injected (control) sides of the brain. […] In contrast, both the 6-OHDA/rapamycin-treated and the 6-OHDA/Formula I-treated sides of the brain show increased staining with the anti-TH antibody, as indicated by the dark shading in those figures. FIG. 3B presents the mean and standard error of the mean (SEM) of the integrated density of anti-TH antibody staining in the striatum, as well as statistical analysis of the results for the groups of mice.
# [3] = system: 6-OHDA injected mice; assay: Anti-TH immunohistochemistry, 6-OHDA-induced TH+ neuronal loss in SN; settings: 10 mg/kg
# Description: (§1) Immunohistochemistry analysis using anti-tyrosine hydroxylase (TH) antibody was also performed to quantify 6-OHDA-induced neuronal loss in mice injected with 6-OHDA and non-injected (control) sides of the brain. […] FIG. 4B presents the mean and standard error of the mean (SEM) as well as statistical analysis of the results. […] This staining data was confirmed by staining for TH protein expression in the 6-OHDA-treated striatum.
# [4] = system: 6-OHDA injected mice; assay: 6-OHDA cylinder test (motor performance); settings: 10 mg/kg, three days pre-treatment before 6-OHDA (80 μg); seven day test
# Description: The data presented in FIG. 2B as mean and standard error of the mean (SEM), for a seven day test. Statistical analyses as compared to baseline mice were performed using the one-way Anova test (*: p<0.05). […] Data is presented as mean and SEM. Statistical analyses were performed using one-way Anova test (*: p<0.05; ***: p<0.001. n.s.: not significant.)
# [5] = Brain concentrations after IP administration to mice (LC-MS/MS of brain homogenates); settings: for Concentration in Mouse Brain, individual animals / concentration at 24 h: Day 3, 24.0 hrs; for Concentration in Mouse Brain, individual animals: Animal ID 1-3; for concentration at 24 h: mouse, brain, ip
# Description: To carry out these assays using brain homogenates, 20 uL of samples and matrix calibration standards into wells of a 96-well plate, and 10 uL of blank matrix allocated for matrix blanks and control blanks. 160 uL internal standard was then added to all samples except matrix blanks, and 160 uL ACN added to matrix blanks. Samples were then vortexed for 5 minutes and centrifuge for 5 minutes at >3500 rpm. 150 uL of the supernatant was then transferred to a new 96-well plate, and the plates blown down to dryness at 35° C., reconstituted with 90 uL of 70:30 water:acetonitrile (ACN) solution, covered and vortexed prior to analysis. LC and MS conditions were the same as described above for the whole blood analysis.
# [6] = system: 6-OHDA injected mice; assay: TH protein expression in 6-OHDA-treated striatum; settings: 3 mg/kg, two-day pre-treatment
# Description: as §1
# [7] = 2 mg/kg or 10 mg/kg IP QD for three days
# [8] = mouse, whole blood, intraperitoneal, 10 mg/kg, 10 mg/kg IP QD x 3 days, Animal ID 4-6, read-out: Concentration in Mouse Whole Blood, individual animals
# [9] = mouse, whole blood, intraperitoneal, 10 mg/kg, 10 mg/kg IP QD x 3 days, read-out: Concentration in Mouse Whole Blood, Mean
structure (smiles),measurement,setting,value
"CO[C@H]1C[C@@H]2CC[C@@H](C)[C@@](O)(O2)C(=O)C(=O)N2CCCC[C@H]2C(=O)O[C@H]([C@H](C)C[C@@H]2C[C@@H]3C[C@H]2C[C@H]3O)CC(=O)[C@H](C)/C=C(\C)[C@@H](O)[C@@H](OC)C(=O)[C@H](C)C[C@H](C)/C=C/C=C/C=C/1C [Formula I, 37R-hydroxynorbornylrapamycin]",Whole blood exposure (in words),[1]; [7],sufficient concentrations in whole blood over time
same,"Concentration in Mouse Whole Blood, individual animals","[1]; 10 mg/kg IP QD x 3 days, Day 2, 1.00 hrs, Animal ID 4-6",AQL (Original value above quantitation limit (1000 ng/mL))
same,"Concentration in Mouse Whole Blood, individual animals","[1]; 10 mg/kg IP QD x 3 days, Day 2, 6.00 hrs, Animal ID 4-6",AQL (Original value above quantitation limit (1000 ng/mL))
same,concentration at 1 h,[1]; [8],2890 ng/mL
same,concentration at 1 h,[1]; [9],3200 ng/mL
same,concentration at 2 h,"[1]; mouse, whole blood, intraperitoneal, 10 mg/kg, 10 mg/kg IP QD x 3 days, Day 3, 2.00 hrs",1900 ng/mL
same,concentration at 6 h,"[1]; mouse, whole blood, intraperitoneal, 10 mg/kg, 10 mg/kg IP QD x 3 days, Day 3, 6.00 hrs",1380 ng/mL
same,concentration at 24 h,[1]; [8],292 ng/mL
same,concentration at 24 h,[1]; [9],372 ng/mL
same,6-OHDA-induced striatal denervation vs rapamycin (FIG. 3A),[2],also decreased 6-OHDA-induced denervation as compared to rapamycin
same,"6-OHDA-induced striatal denervation vs vehicle control (TH integrated density, FIG. 3A)",[2],decreased 6-OHDA-induced denervation as compared to vehicle control
same,"6-OHDA-induced neuronal loss vs vehicle control (TH-positive somas in SN, FIG. 4A)",[3],decreased 6-OHDA-induced neuronal loss as compared to vehicle control
same,"Contralateral touches, percent total touches (FIG. 2B)",[4],outperformed rapamycin and the vehicle control by bringing the number of touches closer to that of baseline mice
same,Brain exposure (in words),[5]; [7],sufficient concentrations in brain over time
same,"Concentration in Mouse Brain, individual animals","[5]; Group 1 (2 mg/kg) IP QD x 3 days, 2 mg/kg",31.1 ng/g and 39.2 ng/g and 68.1 ng/g
same,"Concentration in Mouse Brain, individual animals","[5]; Group 2 (10 mg/kg) IP QD x 3 days, 10 mg/kg",140 ng/g (2×) and 299 ng/g
same,concentration at 24 h,"[5]; 2 mg/kg, Group 1 (2 mg/kg) IP QD x 3 days",46.1 ng/g
same,concentration at 24 h,"[5]; 10 mg/kg, Group 2 (10 mg/kg) IP QD x 3 days",193 ng/g
same,TH protein expression in 6-OHDA-treated striatum (FIGS. 4C-4F),[6],non-statistically significant difference

# — patent US20210030726A1 (MOUNT TAM THERAPEUTICS, INC., priority 2018, published 2021)
